Values joined by “and” are separate entries in the source; they are usually repeats but may differ in a detail not shown here. Identical values can stand only once. Toxic doses and inconclusive results are not listed. The calls were made as follows: active = survival T/C of 150% or more; inactive = T/C below 125% in these data.
Tested on: P388 leukemia ip, CD2F1 mice, survival T/C
Assay: NCI In Vivo Anticancer Drug Screen. Data for tumor model P388 Leukemia (intraperitoneal) in CD2F1 (CDF1) mice
Settings: endpoint: median survival time, higher = longer survival
How it was run: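 Mice carrying the transplanted tumor received test compound or vehicle. Survival was recorded in each group, and the value is the treated-group measurement divided by that of the vehicle-treated control group.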

[1] = dose: 50.0 mg/kg/injection, schedule: Q01DX005 (ip), vehicle: saline with Tween-80
[2] = dose: 100.0 mg/kg/injection, schedule: Q01DX005 (ip), vehicle: saline with Tween-80
[3] = dose: 200.0 mg/kg/injection, schedule: Q01DX005 (ip), vehicle: saline with Tween-80
[4] = dose: 6.25 mg/kg/injection, schedule: Q01DX009 (ip), vehicle: saline
[5] = dose: 12.5 mg/kg/injection, schedule: Q01DX009 (ip), vehicle: saline
[6] = dose: 25.0 mg/kg/injection, schedule: Q01DX009 (ip), vehicle: saline
[7] = dose: 50.0 mg/kg/injection, schedule: Q01DX005 (ip), vehicle: Klucel (hydroxypropylcellulose) (HPC)
[8] = dose: 100.0 mg/kg/injection, schedule: Q01DX005 (ip), vehicle: Klucel (hydroxypropylcellulose) (HPC)
[9] = dose: 200.0 mg/kg/injection, schedule: Q01DX005 (ip), vehicle: Klucel (hydroxypropylcellulose) (HPC)
[10] = dose: 60.0 mg/kg/injection, schedule: Q01DX005 (ip), vehicle: saline + Tween-80 + alcohol
[11] = dose: 120.0 mg/kg/injection, schedule: Q01DX005 (ip), vehicle: saline + Tween-80 + alcohol
[12] = dose: 240.0 mg/kg/injection, schedule: Q01DX005 (ip), vehicle: saline + Tween-80 + alcohol
[13] = dose: 60.0 mg/kg/injection, schedule: Q01DX005 (ip), vehicle: saline with Tween-80
[14] = dose: 120.0 mg/kg/injection, schedule: Q01DX005 (ip), vehicle: saline with Tween-80
[15] = dose: 240.0 mg/kg/injection, schedule: Q01DX005 (ip), vehicle: saline with Tween-80
[16] = dose: 12.5 mg/kg/injection, schedule: Q01DX005 (ip), vehicle: Klucel (hydroxypropylcellulose) (HPC)
[17] = dose: 50.0 mg/kg/injection, schedule: Q01DX009 (ip), vehicle: Klucel (hydroxypropylcellulose) (HPC)
[18] = dose: 100.0 mg/kg/injection, schedule: Q01DX009 (ip), vehicle: Klucel (hydroxypropylcellulose) (HPC)

Measured: T/C

C/C(=C\Cc1cc(O)cc(C)c1O)CC(=O)CC1(C)CCCC1(C)C(=O)/C=C/C(C)(C)O (stereo not given)
inactive: dose: 1.5 mg/kg/injection, schedule: Q01DX009 (ip), vehicle: saline with Tween-80 110 % of control | dose: 3.0 mg/kg/injection, schedule: Q01DX009 (ip), vehicle: saline with Tween-80 101 % of control | dose: 6.0 mg/kg/injection, schedule: Q01DX009 (ip), vehicle: saline with Tween-80 104 % of control | dose: 12.0 mg/kg/injection, schedule: Q01DX009 (ip), vehicle: saline with Tween-80 103 % of control

O=C(c1ccc(Br)cc1)c1cnc2nc(-c3ccccc3)c(-c3ccccc3)nn12
inactive: [1] 91 % of control | [2] 96 % of control | [3] 96 % of control

CC(=O)c1c(O)cc2c(c1O)C1CC(C)(CCC1=C(C)C)O2 (stereo not given)
inactive: [4] 105 % of control | [5] 105 % of control | [6] 107 % of control | dose: 100.0 mg/kg/injection, schedule: Q01DX009 (ip), vehicle: saline 90 % of control | dose: 200.0 mg/kg/injection, schedule: Q01DX009 (ip), vehicle: saline 89 % of control

C/C(=N\NC(=S)Nc1nccs1)c1ccc2ccccc2n1
inactive: [1] 102 % of control | [2] 100 % of control | [3] 113 % of control

O=C1CSC(=S)N1/N=C/c1ccc(Cl)c(Cl)c1
inactive: dose: 1.56 mg/kg/injection, schedule: Q01DX009 (ip), vehicle: saline with Tween-80 100 % of control | dose: 3.13 mg/kg/injection, schedule: Q01DX009 (ip), vehicle: saline with Tween-80 110 % of control | dose: 6.25 mg/kg/injection, schedule: Q01DX009 (ip), vehicle: saline with Tween-80 120 % of control

[O-][n+]1c2c(cc3ccccc31)Cc1ccccc1-2
inactive: [7] 109 % of control | [8] 101 % of control | [9] 106 % of control

CCO/C=C1/N=C(c2ccc3ccccc3c2)OC1=O
inactive: [10] 101 % of control | [11] 100 % of control | [12] 86 % of control

C/C(=N/NC(N)=O)c1ccc2c3c(cc(Br)c2c1)CCCC3
inactive: dose: 6.25 mg/kg/injection, schedule: Q01DX005 (ip), vehicle: saline with Tween-80 99 % of control | dose: 12.5 mg/kg/injection, schedule: Q01DX005 (ip), vehicle: saline with Tween-80 99 % of control | dose: 25.0 mg/kg/injection, schedule: Q01DX005 (ip), vehicle: saline with Tween-80 95 % of control | [1] 91 % of control

COc1ccc(-n2cc[n+](C)c2/C=N\O)cc1
inactive: dose: 50.0 mg/kg/injection, schedule: Q01DX009 (ip), vehicle: saline with Tween-80 97 % of control | dose: 100.0 mg/kg/injection, schedule: Q01DX009 (ip), vehicle: saline with Tween-80 98 % of control

Nc1nc(N)c2ncn(-c3ccc(Br)cc3)c2n1
inactive: [1] 95 % of control | [2] 92 % of control | [3] 91 % of control

CC(=O)OCc1c(C)[nH]c2ccc(N(C)C)cc2c1=O
inactive: [13] 88 % of control | [14] 103 % of control | [15] 111 % of control

Nc1cccc(N)n1
inactive: dose: 3.12 mg/kg/injection, schedule: Q01DX009 (ip), vehicle: saline 102 % of control | [4] 101 % of control (2×) and 103 % of control | [5] 100 % of control and 109 % of control and 114 % of control | [6] 112 % of control and 124 % of control

CCCOc1cc2c(cc1C(C)c1ccc(OC)c(C)c1)OCO2 (stereo not given)
inactive: [10] 97 % of control | [11] 109 % of control | [12] 108 % of control

N=C(N=C(C(Cl)(Cl)Cl)C(Cl)(Cl)Cl)N=C(C(Cl)(Cl)Cl)C(Cl)(Cl)Cl
inactive: [13] 100 % of control | [14] 99 % of control | [15] 104 % of control

CCC(c1ccc(OC)cc1)c1cc2c(cc1OC)OCO2 (stereo not given)
inactive: [7] 97 % of control | [8] 106 % of control | [9] 113 % of control

CC(=O)OCC#CCN1CCCCC1
inactive: dose: 6.25 mg/kg/injection, schedule: Q01DX005 (ip), vehicle: saline 102 % of control | dose: 12.5 mg/kg/injection, schedule: Q01DX005 (ip), vehicle: saline 104 % of control | dose: 25.0 mg/kg/injection, schedule: Q01DX005 (ip), vehicle: saline 101 % of control

CC(C)=C1CC(C)(C)N2CCCC12 (stereo not given)
inactive: [7] 100 % of control

ClCSCc1ccccc1
inactive: dose: 12.5 mg/kg/injection, schedule: Q01DX009 (ip), vehicle: other 110 % of control | dose: 25.0 mg/kg/injection, schedule: Q01DX009 (ip), vehicle: other 110 % of control | dose: 50.0 mg/kg/injection, schedule: Q01DX009 (ip), vehicle: other 110 % of control

NC(=S)NN=C(C1CC1)C1CC1
inactive: dose: 6.25 mg/kg/injection, schedule: Q01DX005 (ip), vehicle: Klucel (hydroxypropylcellulose) (HPC) 98 % of control | [16] 97 % of control

O=C(CC(c1ccccc1)C(C(=O)O)c1ccc(Br)cc1)c1ccccc1 (stereo not given)
inactive: [16] 100 % of control | dose: 25.0 mg/kg/injection, schedule: Q01DX005 (ip), vehicle: Klucel (hydroxypropylcellulose) (HPC) 90 % of control | [7] 89 % of control

CC(=O)N1C=CC(=Cc2ccccc2)C=C1
inactive: [17] 98 % of control | [18] 98 % of control | dose: 200.0 mg/kg/injection, schedule: Q01DX009 (ip), vehicle: Klucel (hydroxypropylcellulose) (HPC) 99 % of control

CCOC(c1ccc(OC)cc1)c1cc(C(C)(C)C)cc(C(C)(C)C)c1O (stereo not given)
inactive: dose: 50.0 mg/kg/injection, schedule: Q01DX005 (ip), vehicle: distilled water + alcohol 103 % of control | dose: 100.0 mg/kg/injection, schedule: Q01DX005 (ip), vehicle: distilled water + alcohol 105 % of control | dose: 200.0 mg/kg/injection, schedule: Q01DX005 (ip), vehicle: distilled water + alcohol 107 % of control

COC(=O)c1c[nH]c(=O)[nH]c1=O
inactive: [13] 94 % of control | [14] 105 % of control | [15] 112 % of control

Cc1cc(C)c(SSc2nnnn2C)c(C)c1
inactive: [17] 100 % of control | [18] 90 % of control

Cc1ccc(N2C(=S)N(c3cccc(Cl)c3Cl)C(=O)C(N=Nc3cccc(Cl)c3Cl)C2O)cc1 (stereo not given)
inactive: dose: 100.0 mg/kg/injection, schedule: Q01DX001 (ip), vehicle: Klucel (hydroxypropylcellulose) (HPC) 97 % of control | dose: 200.0 mg/kg/injection, schedule: Q01DX001 (ip), vehicle: Klucel (hydroxypropylcellulose) (HPC) 98 % of control | dose: 400.0 mg/kg/injection, schedule: Q01DX001 (ip), vehicle: Klucel (hydroxypropylcellulose) (HPC) 97 % of control

CC12CCCN1CC=C2CO (stereo not given)
inactive: dose: 25.0 mg/kg/injection, schedule: Q01DX001 (ip), vehicle: saline with Tween-80 100 % of control | dose: 50.0 mg/kg/injection, schedule: Q01DX001 (ip), vehicle: saline with Tween-80 96 % of control | dose: 100.0 mg/kg/injection, schedule: Q01DX001 (ip), vehicle: saline with Tween-80 100 % of control

CC(=O)SCCCCl
inactive: dose: 50.0 mg/kg/injection, schedule: Q04DX003 (ip), vehicle: saline with Tween-80 100 % of control | dose: 100.0 mg/kg/injection, schedule: Q04DX003 (ip), vehicle: saline with Tween-80 109 % of control | dose: 200.0 mg/kg/injection, schedule: Q04DX003 (ip), vehicle: saline with Tween-80 109 % of control

CN(C)C=C1C(=O)CCCC1=O
inactive: dose: 60.0 mg/kg/injection, schedule: Q01DX005 (ip), vehicle: saline 105 % of control | dose: 120.0 mg/kg/injection, schedule: Q01DX005 (ip), vehicle: saline 117 % of control

COc1ccc(CSC(=S)Nc2ccc(Cl)c(Cl)c2)cc1
inactive: dose: 12.5 mg/kg/injection, schedule: Q01DX009 (ip), vehicle: Klucel (hydroxypropylcellulose) (HPC) 111 % of control | dose: 25.0 mg/kg/injection, schedule: Q01DX009 (ip), vehicle: Klucel (hydroxypropylcellulose) (HPC) 120 % of control | [17] 120 % of control and 121 % of control | [18] 111 % of control

COc1cccc2c1C(=O)c1c(O)c(CCl)cc(O)c1C2=O
inactive: dose: 3.75 mg/kg/injection, schedule: Q01DX005 (ip), vehicle: saline with Tween-80 99 % of control | dose: 7.5 mg/kg/injection, schedule: Q01DX005 (ip), vehicle: saline with Tween-80 92 % of control | dose: 15.0 mg/kg/injection, schedule: Q01DX005 (ip), vehicle: saline with Tween-80 89 % of control

Source: PubChem BioAssay AID330 (DTP/NCI, 2004)
